The record followed here is PMC8230474, “Synthesis of Novel Acyl Derivatives of 3-(4,5,6,7-Tetrabromo-1H-benzimidazol-1-yl)propan-1-ols—Intracellular TBBi-Based CK2 Inhibitors with Proapoptotic Properties” (International Journal of Molecular Sciences, 2021).

One experiment concerns MCF-7 cells. Put plainly: Cleaved PARP1 Western blot, MCF-7. The class given is cell-based, human. The note with it: MCF-7, 72 h treatment, compound at its EC50. The method, then:
In order to evaluate the proapoptotic properties of the newly synthesized derivatives, we analyzed the level of cleaved PARP1 [c-PARP1, nuclear poly (ADP-ribose) polymerase 1], the hallmark of apoptotic cells.
Considering the lack of significant effect of the tested compounds in MCF-7 cells after 24-h treatment, we additionally evaluated c-PARP1 level in this cell line after 72 h of treatment. […] It should be noted that the highest level of c-PARP up to almost 20-fold higher than in the control was detected in the cell culture treated with a derivative 6b.
The MCF-7 cells growing exponentially were seeded at 4.8 × 10^5 cells in 6-cm-diameter plates. Subsequently, compounds were added in a final concentration of 0.5% DMSO. […] The protein concentration was determined using Bradford assay. […] Equal amounts of total protein (10 to 20 μg) were analyzed by SDS-PAGE, and subsequently, Western blotting was performed using primary antibodies in blocking buffer containing either 3% BSA (bovine serum albumin) or 3% milk in TBS-T (Tris-buffered saline (10 mM Tris-HCl (pH 8), 150 mM NaCl) containing 0.1% Tween 20 or 0.2% Triton X-100) for 1 h. […]
For densitometry, immunoblots were quantified using the Fiji distribution of the ImageJ 1.52a software (National Institutes of Health, Bethesda, MD, USA, and the University of Wisconsin, Madison, WI, USA). […]

The test system of experiment [1] is protein kinase CK2 in MCF-7 cells. The experiment can be described thus: Intracellular inhibition of CK2, Western blot of p-Ser529 p65 and p-Ser129 Akt1, MCF-7. The class given is cell-based, human. From the text: We observed an inhibition of CK2 in both cell lines; however, the lower efficiency of CK2 inhibition was detected in MCF-7 considering the extent of Akt1 phosphorylation. The relative level of the phosphorylation of the tested proteins in MDA-MB-231 cells was in the range of 0.32 to 0.80 for p-Ser529 p65 and 0.41 to 0.73 for p-Ser129 Akt1, whereas in MCF-7 cells it was in the range of 0.33 to 0.78 for p-Ser529 p65 and 0.82 to 1.23 for p-Ser129 Akt1, respectively. The lowest phosphorylation levels of the tested proteins were detected in MDA-MB-231 cells for compound 6b with the relative level of 0.41 for Ser129 Akt1 as well as for compound 6c with the relative level of 0.32 for p-Ser529 p65. Among the tested proteins, the lowest extent of phosphorylation in MCF-7 cells was detected for 6b with the relative level of 0.33 for p-Ser529 p65, and for 6a with the relative level of 0.82 for Ser129 Akt1.
Considering an inefficient inhibition of CK2 in MCF-7, we evaluated an inhibition of CK2 in this cell line after 72 h. […] The relative levels were in the range of 0.17 to 0.8 for p-Ser529 p65 and 0.19 to 0.79 for p-Ser129 Akt1.
The MCF-7 cells growing exponentially were seeded at 4.8 × 10^5 cells in 6-cm-diameter plates. Subsequently, compounds were added in a final concentration of 0.5% DMSO. After incubation, floating cells were collected and cell monolayer was washed three times in ice-cold PBS and the cells were scraped, combined with floating cells and lysed in RIPA buffer consisting of 50 mM Tris-HCl (pH 7.4), 1% NP-40, 0.5% sodium deoxycholate, 0.1% SDS, 150 mM NaCl, 2 mM EDTA, 50 mM NaF, 0.2 mM sodium orthovanadate, and protease inhibitors cocktail. Subsequently, cells were sonicated (three times for 15 s), centrifuged at 20,000× g for 15 min at 4 °C, and the supernatants were collected and stored at −80 °C. The protein concentration was determined using Bradford assay. Then, supernatants were incubated with the Laemmli buffer for 5 min at 98 °C. Equal amounts of total protein (10 to 20 μg) were analyzed by SDS-PAGE, and subsequently, Western blotting was performed using primary antibodies in blocking buffer containing either 3% BSA (bovine serum albumin) or 3% milk in TBS-T (Tris-buffered saline (10 mM Tris-HCl (pH 8), 150 mM NaCl) containing 0.1% Tween 20 or 0.2% Triton X-100) for 1 h. After overnight incubation at 4 °C with the primary antibodies, the membranes were washed with TBS-T and probed with the respective secondary antibodies. The ECL substrate was used for detection and immunoblots were scanned using G Box Chemi (Syngene, Cambridge, UK) with GeneSys software (Syngene, Cambridge, UK) or were developed with the use of X-rays films. UV-irradiated Jurkat cells were used as a positive control in Western blot analysis of c-PARP1. After 2 h, one-minute UV-irradiated Jurkat leukemic T-cell line was lysed and subjected to analysis.
For densitometry, immunoblots were quantified using the Fiji distribution of the ImageJ 1.52a software (National Institutes of Health, Bethesda, MD, USA, and the University of Wisconsin, Madison, WI, USA). Phosphorylated protein densities were normalized to GAPDH densities, assuming 1 for untreated cells and then they were converted to a percent of the appropriate control.
Background: A western blot detects proteins with antibodies after separation by electrophoresis.

In another experiment the target is PIM1 (Homo sapiens, UniProt P11309). Put plainly: Radiometric (P81 filter isotopic) kinase assay, PIM1. The format is biochemical. The note with it: read-out: Residual Activity of the Enzyme PIM1; for remaining activity at 5 µM: 5 µM compound; for remaining activity at 10 µM: 10 µM compound.
In experiment [2] the target is human CK2 catalytic subunit (CK2α) (Homo sapiens, UniProt P68400). Put plainly: Radiometric (P81 filter isotopic) kinase assay, CK2 catalytic subunit. The format is biochemical. The note with it: read-out: Residual Activity of the Enzyme CK2α; for remaining activity at 5 µM: 5 µM compound; for remaining activity at 10 µM: 10 µM compound.
In a further experiment the test system is MDA-MB-231 cells. The experiment can be described thus: MTT viability assay, MDA-MB-231. The format is cell-based. The note with it: Homo sapiens, read-out: EC50 ± SD MDA-MB-231. The method, then:
To test the anti-cancer effect of the TBBi derivatives, we treated the MCF-7 and MDA-MB-231 cells with the newly synthesized esters and previously reported compounds [34, 57] at the concentration range of 3.125 to 200 µM for 24 h, 48 h and 72 h. Additionally, the range of concentrations was extended by additional lower concentrations in MCF-7 for compound 4 with the minimum concentration of 0.195 µM. […] The EC50 values, describing the half maximal effective concentration of each tested compound, were calculated and are summarized in Table 2. […] We observed that the EC50 values increase in both cell lines with the elongation of fatty acids chain length in the tested compounds, thus strongly correlating with the decrease of their solubility in biological media as characterized by logS parameter (Table 2). The second reason for the decreased biological activity of the longer-chain aliphatic esters might be attributed to their greater resistance toward intracellular hydrolysis, which directly influences the slower release of the active form of the corresponding CK2 inhibitors. […] However, none of the tested compounds, except for compound 5, decreased the viability of both cell lines in a time-dependent manner (Figure 4).
MCF-7 and MDA-MB-231 were cultured in high-glucose Dulbecco’s modified Eagle medium (DMEM, Lonza, Basel, Switzerland) supplemented with 10% fetal bovine serum (FBS, EuroClone, Siziano, Italy)), 2 mM L-glutamine, and antibiotics (100 U/mL penicillin, 100 µg/mL streptomycin) (Sigma-Aldrich Chemical Company (St. Louis, MO, USA). Cells were grown in 75-cm^2 cell culture flasks (Sarstedt, Nümbrecht, Germany) in a humidified atmosphere of CO2/air (5%/95%) at 37 °C. All the experiments were performed in exponentially growing cultures. Stock solutions of the test compounds were prepared in DMSO and stored in −80 °C for a maximum of one month. For the cytotoxicity studies, stock solutions of the tested compounds were diluted 200-fold with the proper culture medium to obtain the final concentrations.
After incubation with the tested compounds, an MTT test was performed as described previously. Optical densities were measured at 570 nm using BioTek microplate reader (Winooski, VT, USA). All measurements were carried out in a minimum of three biological replicates.
On the technique in general: Tetrazolium dyes change colour on reduction, which living cells bring about.

[3] abbreviates: MCF-7, 72 h treatment, compound at its EC50, relative to untreated control.

Where two headings read alike, the source gives them in different places.

Sequence of human CK2 catalytic subunit (CK2α) (P68400 whole entry): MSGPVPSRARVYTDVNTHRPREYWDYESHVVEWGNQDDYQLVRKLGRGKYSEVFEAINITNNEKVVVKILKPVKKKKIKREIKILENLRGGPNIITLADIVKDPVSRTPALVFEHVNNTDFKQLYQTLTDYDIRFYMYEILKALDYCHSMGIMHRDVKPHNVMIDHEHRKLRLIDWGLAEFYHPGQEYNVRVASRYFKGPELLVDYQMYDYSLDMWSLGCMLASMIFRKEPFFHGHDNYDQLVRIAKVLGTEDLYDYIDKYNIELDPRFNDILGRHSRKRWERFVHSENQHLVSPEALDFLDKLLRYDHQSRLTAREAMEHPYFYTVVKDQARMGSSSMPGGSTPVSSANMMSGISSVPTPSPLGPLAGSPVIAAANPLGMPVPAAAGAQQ
Sequence of PIM1 (P11309 whole entry, species assumed): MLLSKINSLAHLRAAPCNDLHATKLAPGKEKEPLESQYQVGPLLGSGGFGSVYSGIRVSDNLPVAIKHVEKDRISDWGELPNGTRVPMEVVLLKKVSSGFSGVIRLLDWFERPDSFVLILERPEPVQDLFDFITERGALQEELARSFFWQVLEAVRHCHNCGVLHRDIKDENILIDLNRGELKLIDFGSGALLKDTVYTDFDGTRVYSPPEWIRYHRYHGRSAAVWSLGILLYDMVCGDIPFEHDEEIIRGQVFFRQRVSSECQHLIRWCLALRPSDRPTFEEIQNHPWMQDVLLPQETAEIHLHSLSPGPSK

As usually defined, the EC50 is the concentration at which the effect is half-maximal. As to `CCCCCCCC(=O)OCCCn1cnc2c(Br)c(Br)c(Br)c(Br)c21` [Compound 3c, 3-(4,5,6,7-Tetrabromo-1H-benzimidazol-1-yl)propyl octanoate], the “level of c-PARP1 relative to control” value with MCF-7 cells is “significant increase”. In addition, the “relative level of p-Ser129 Akt1” value in experiment [1] (setting [3]) was determined as 0.19. Also, the “relative level of p-Ser529 p65” value in experiment [1] (setting [3]) was 0.17. In addition, the remaining activity at 5 µM on PIM1 came out at 99.1 ± 15.7%; in experiment [2], 86.1 ± 4.2%. Further, the remaining activity at 10 µM turned out to be 95.4 ± 4% on PIM1 and 79.2 ± 7.6% in experiment [2]. For the same molecule, the results for the EC50 in the experiment with MDA-MB-231 cells (24 h), with MDA-MB-231 cells (48 h) and with MDA-MB-231 cells (72 h) were 45.1 ± 5.43 µM, 23.7 ± 3.97 µM and 32.8 ± 3.25 µM, respectively.
Regarding `CCCCCC(=O)OCCCn1c(C)nc2c(Br)c(Br)c(Br)c(Br)c21` [Compound 6b, (4,5,6,7-Tetrabromo-2-methyl-1H-benzimidazol-1-yl)propyl hexanoate], in the experiment on MCF-7 cells, the “level of c-PARP1 relative to control” value is recorded as ~20 fold. Besides, in experiment [1] (MCF-7, 24 h treatment, compound at its 72-h EC50, relative to untreated control), the “relative level of p-Ser529 p65” value is listed as 0.33. In addition, the remaining activity at 5 µM at PIM1 was found to be 62.4 ± 8.3%; in experiment [2], 76.8 ± 1.9%. Also, the remaining activity at 10 µM at PIM1 was 46.4 ± 2.7%; in experiment [2] it was 74.3 ± 0.1%. Moreover, the EC50 in the experiment on MDA-MB-231 cells (24 h) was determined as 51.4 ± 8.22 µM; in the experiment with MDA-MB-231 cells (48 h) it was 21.2 ± 2.4 µM; in the experiment with MDA-MB-231 cells (72 h), 22.1 ± 3.18 µM.
